The record followed here is ChEMBL document CHEMBL1150081, “Antimicrobial Agents from Tanacetum balsamita” (1995).

Experiment [1] deals with Bacillus subtilis. The experiment can be described thus: Antibacterial activity against Bacillus subtilis ATCC 9372 after 2 days by broth dilution method. The format is functional. The settings on record: ATCC 9372, 48 h. On the technique in general: In broth dilution the organism is exposed to a series of concentrations in liquid medium.
Experiment [2] relates to Corynebacterium ammoniagenes. As to the kind of experiment: Antibacterial activity against Brevibacterium ammoniagenes ATCC 6872 after 2 days by broth dilution method. The format is functional. Particulars: ATCC 6872, 48 h.
Experiment [3] relates to Staphylococcus aureus. As to the kind of experiment: Antibacterial activity against Staphylococcus aureus ATCC 12598 after 2 days by broth dilution method. The format is functional. The settings on record: ATCC 12598, 48 h.
Experiment [4] has as its system Streptococcus mutans. As to the kind of experiment: Antibacterial activity against Streptococcus mutans ATCC […] after 2 days by broth dilution method. The format is functional. Particulars: 48 h.
Experiment [5] deals with Cutibacterium acnes. The experiment can be described thus: Antibacterial activity against Propionibacterium acnes ATCC 11827 after 2 days by broth dilution method. Particulars: ATCC 11827, 48 h. The format is functional.
The test system of experiment [6] is Escherichia coli. As to the kind of experiment: Antibacterial activity against Escherichia coli ATCC 9637 after 2 days by broth dilution method. Particulars: ATCC 9637, 48 h. The format is functional.
In experiment [7] the test system is Pseudomonas aeruginosa. As to the kind of experiment: Antibacterial activity against Pseudomonas aeruginosa ATCC 10145 after 2 days by broth dilution method. The settings on record: ATCC 10145, 48 h. The format is functional.
Experiment [8] has as its system Klebsiella aerogenes. The experiment can be described thus: Antibacterial activity against Enterobacter aerogenes ATCC 13048 after 2 days by broth dilution method. The format is functional. The settings on record: ATCC 13048, 48 h.
In experiment [9] the test system is Saccharomyces cerevisiae. The experiment can be described thus: Antifungal activity against Saccharomyces cerevisiae ATCC 7754 after 2 days by broth dilution method. The format is functional. The settings on record: ATCC 7754, 48 h.
For experiment [10], the system named is Cyberlindnera jadinii. The experiment can be described thus: Antifungal activity against Candida utilis ATCC 9226 after 2 days by broth dilution method. The format is functional. Particulars: Williopsis jadinii, ATCC 9226, 48 h.
For experiment [11], the system named is Proteus vulgaris. The experiment can be described thus: Antibacterial activity against Proteus vulgaris ATCC 13315 after 2 days by broth dilution method. The format is functional. Particulars: ATCC 13315, 48 h.
Experiment [12] deals with Malassezia. As to the kind of experiment: Antifungal activity against Pityrosporum ovale ATCC 14521 after 3 days by broth dilution method. The settings on record: ATCC 14521, 72 h. The format is functional.
Experiment [13] concerns Penicillium chrysogenum. As to the kind of experiment: Antifungal activity against Penicillium chrysogenum ATCC 10106 after 5 days by broth dilution method. The format is functional. The settings on record: ATCC 10106, 120 h.
Experiment [14] relates to Trichophyton mentagrophytes. As to the kind of experiment: Antifungal activity against Trichophyton mentagrophytes ATCC 18748 after 5 days by broth dilution method. The format is functional. The settings on record: ATCC 18748, 120 h.
Experiment [15] relates to Corynebacterium ammoniagenes. As to the kind of experiment: Ratio of MBC to MIC for Brevibacterium ammoniagenes ATCC 6872. The format is functional.
Experiment [16] deals with Staphylococcus aureus. The experiment can be described thus: Ratio of MBC to MIC for Staphylococcus aureus ATCC 12598. The format is functional.
The test system of experiment [17] is Streptococcus mutans. The experiment can be described thus: Ratio of MBC to MIC for Streptococcus mutans ATCC […]. The format is functional.
Experiment [18] concerns Cutibacterium acnes. As to the kind of experiment: Ratio of MBC to MIC for Propionibacterium acnes ATCC 11827. The format is functional.
Experiment [19] has as its system Escherichia coli. As to the kind of experiment: Ratio of MBC to MIC for Escherichia coli ATCC 9637. The format is functional.
The test system of experiment [20] is Pseudomonas aeruginosa. As to the kind of experiment: Ratio of MBC to MIC for Pseudomonas aeruginosa ATCC 10145. The format is functional.
The test system of experiment [21] is Klebsiella aerogenes. The experiment can be described thus: Ratio of MBC to MIC for Enterobacter aerogenes ATCC 13048. The format is functional.
Experiment [22] concerns Proteus vulgaris. The experiment can be described thus: Ratio of MBC to MIC for Proteus vulgaris ATCC 13315. The format is functional.
Experiment [23] has as its system Bacillus subtilis. The experiment can be described thus: Antibacterial activity against Bacillus subtilis ATCC 9372 up to 800 ug/ml after 2 days by broth dilution method. The format is functional, organism-based.
Experiment [24] has as its system Corynebacterium ammoniagenes. As to the kind of experiment: Antibacterial activity against Brevibacterium ammoniagenes ATCC 6872 up to 800 ug/ml after 2 days by broth dilution method. The format is functional, organism-based.
Experiment [25] concerns Staphylococcus aureus. The experiment can be described thus: Antibacterial activity against Staphylococcus aureus ATCC 12598 up to 800 ug/ml after 2 days by broth dilution method. The format is functional, organism-based.
For experiment [26], the system named is Streptococcus mutans. The experiment can be described thus: Antibacterial activity against Streptococcus mutans ATCC […] up to 800 ug/ml after 2 days by broth dilution method. The format is functional, organism-based.
In experiment [27] the test system is Cutibacterium acnes. The experiment can be described thus: Antibacterial activity against Propionibacterium acnes ATCC 11827 up to 800 ug/ml after 2 days by broth dilution method. The format is functional, organism-based.
Experiment [28] concerns Escherichia coli. As to the kind of experiment: Antibacterial activity against Escherichia coli ATCC 9637 up to 800 ug/ml after 2 days by broth dilution method. The format is functional, organism-based.
The test system of experiment [29] is Pseudomonas aeruginosa. The experiment can be described thus: Antibacterial activity against Pseudomonas aeruginosa ATCC 10145 up to 800 ug/ml after 2 days by broth dilution method. The format is functional, organism-based.
Experiment [30] relates to Klebsiella aerogenes. As to the kind of experiment: Antibacterial activity against Enterobacter aerogenes ATCC 13048 up to 800 ug/ml after 2 days by broth dilution method. The format is functional, organism-based.
Experiment [31] deals with Saccharomyces cerevisiae. As to the kind of experiment: Antifungal activity against Saccharomyces cerevisiae ATCC 7754 up to 800 ug/ml after 2 days by broth dilution method. The format is functional, organism-based.
Experiment [32] deals with Cyberlindnera jadinii. As to the kind of experiment: Antifungal activity against Candida utilis ATCC 9226 up to 800 ug/ml after 2 days by broth dilution method. The format is functional, organism-based.
For experiment [33], the system named is Proteus vulgaris. As to the kind of experiment: Antibacterial activity against Proteus vulgaris ATCC 13315 up to 800 ug/ml after 2 days by broth dilution method. The format is functional, organism-based.
Experiment [34] relates to Malassezia. As to the kind of experiment: Antifungal activity against Pityrosporum ovale ATCC 14521 up to 800 ug/ml after 3 days by broth dilution method. The format is functional, organism-based.
Experiment [35] relates to Penicillium chrysogenum. The experiment can be described thus: Antifungal activity against Penicillium chrysogenum ATCC 10106 up to 800 ug/ml after 5 days by broth dilution method. The format is functional, organism-based.
The test system of experiment [36] is Trichophyton mentagrophytes. The experiment can be described thus: Antifungal activity against Trichophyton mentagrophytes ATCC 18748 up to 800 ug/ml after 5 days by broth dilution method. The format is functional, organism-based.

Converted amounts (≈) assume the structure as drawn. The source made the active and inactive calls.

As a reminder, the MIC is the smallest concentration in the dilution series that meets the test's criterion for growth inhibition. Low readings indicate greater potency, high ones weaker potency. Consider `CCCCC/C=C/C=C/C=O`, for which the minimum inhibitory concentration (MIC) in [1] was 50 µg/mL (≈ 328 µM); in experiment [2], 100 µg/mL (≈ 657 µM); in experiment [3], 50 µg/mL (≈ 328 µM); in experiment [4] it was 100 µg/mL (≈ 657 µM); in experiment [5], 12.5 µg/mL (≈ 82.1 µM); in [6] it was greater than 800 µg/mL. Also, the MIC is greater than 800 µg/mL in experiment [7]; greater than 800 µg/mL in experiment [8]; 25 µg/mL (≈ 164 µM) in experiment [9]; 25 µg/mL (≈ 164 µM) in experiment [10]; 25 µg/mL (≈ 164 µM) in experiment [11]; 12.5 µg/mL (≈ 82.1 µM) in experiment [12]. For the same molecule, the values for the minimum inhibitory concentration (MIC) in experiment [13] and in [14] were 12.5 µg/mL (≈ 82.1 µM) and 1.56 µg/mL (≈ 10.2 µM), respectively.

`CCCCC/C=C/C=O`: the minimum inhibitory concentration (MIC) is 100 µg/mL (≈ 792 µM) in experiment [1]; 200 µg/mL (≈ 1580 µM) in experiment [2]; 200 µg/mL (≈ 1580 µM) in experiment [3]; 400 µg/mL (≈ 3170 µM) in experiment [4]; 50 µg/mL (≈ 396 µM) in [5]; 200 µg/mL (≈ 1580 µM) in [6]. The MIC is greater than 800 µg/mL in experiment [7]; 200 µg/mL (≈ 1580 µM) in experiment [8]; 50 µg/mL (≈ 396 µM) in experiment [9]; 50 µg/mL (≈ 396 µM) in [10]; 50 µg/mL (≈ 396 µM) in experiment [11]; 25 µg/mL (≈ 198 µM) in experiment [12]. In addition, the MIC in [13] is 50 µg/mL (≈ 396 µM); in experiment [14] it was 25 µg/mL (≈ 198 µM).

For `CCCCCCCC/C=C/C=O`, the MIC was 25 µg/mL (≈ 149 µM) in experiment [1]; 25 µg/mL (≈ 149 µM) in experiment [2]; 12.5 µg/mL (≈ 74.3 µM) in experiment [3]; 50 µg/mL (≈ 297 µM) in [4]; 6.25 µg/mL (≈ 37.1 µM) in [5]; greater than 800 µg/mL in [6]. The MIC is greater than 800 µg/mL in experiment [7]; greater than 800 µg/mL in [8]; 25 µg/mL (≈ 149 µM) in experiment [9]; 12.5 µg/mL (≈ 74.3 µM) in [10]; 12.5 µg/mL (≈ 74.3 µM) in experiment [11]; 25 µg/mL (≈ 149 µM) in experiment [12]. For the same molecule, the figures for the minimum inhibitory concentration (MIC) in [13] and in [14] were 6.25 µg/mL (≈ 37.1 µM) and 1.56 µg/mL (≈ 9.27 µM), respectively.

Consider `CCCC/C=C/C=O`, for which the Ratio entry in experiment [15], in experiment [16], in experiment [17], in experiment [18], in experiment [19] and in experiment [20] was “<=2” each time. In addition, the Ratio result in experiment [21] and in [22] was “<=2” in each case. Besides, the minimum inhibitory concentration (MIC) in [1] came out at 200 µg/mL (≈ 1780 µM); in experiment [2], 400 µg/mL (≈ 3570 µM); in [3], 400 µg/mL (≈ 3570 µM); in experiment [4], 400 µg/mL (≈ 3570 µM); in experiment [5], 100 µg/mL (≈ 891 µM); in [6], 400 µg/mL (≈ 3570 µM). The MIC in experiment [7] came to 800 µg/mL (≈ 7130 µM); in experiment [8], 400 µg/mL (≈ 3570 µM); in experiment [9] it was 100 µg/mL (≈ 891 µM); in experiment [10] it was 100 µg/mL (≈ 891 µM); in experiment [11], 100 µg/mL (≈ 891 µM); in experiment [12], 50 µg/mL (≈ 446 µM). Besides, the MIC in [13] stood at 50 µg/mL (≈ 446 µM); in experiment [14], 25 µg/mL (≈ 223 µM).

`CCCCCCCCCCCCCCCC(=O)O`: the result in [23], in experiment [24], in experiment [25], in [26], in experiment [27] and in experiment [28] was inactive. Further, the result in [29], in experiment [30], in [31], in [32], in experiment [33] and in experiment [34] was inactive. Moreover, the result in experiment [35] and in experiment [36] was inactive.
